Molecular target: Androgen receptor (Mus musculus) (UniProt P19091)
Test: Antagonist activity at wild type AR expressed in mouse SC-3 cells assessed as inhibition of 1 nM DHT-induced cell proliferation after 3 days by WST-8 assay

Sequence of Androgen receptor (Mus musculus) (P19091 whole entry, looked up): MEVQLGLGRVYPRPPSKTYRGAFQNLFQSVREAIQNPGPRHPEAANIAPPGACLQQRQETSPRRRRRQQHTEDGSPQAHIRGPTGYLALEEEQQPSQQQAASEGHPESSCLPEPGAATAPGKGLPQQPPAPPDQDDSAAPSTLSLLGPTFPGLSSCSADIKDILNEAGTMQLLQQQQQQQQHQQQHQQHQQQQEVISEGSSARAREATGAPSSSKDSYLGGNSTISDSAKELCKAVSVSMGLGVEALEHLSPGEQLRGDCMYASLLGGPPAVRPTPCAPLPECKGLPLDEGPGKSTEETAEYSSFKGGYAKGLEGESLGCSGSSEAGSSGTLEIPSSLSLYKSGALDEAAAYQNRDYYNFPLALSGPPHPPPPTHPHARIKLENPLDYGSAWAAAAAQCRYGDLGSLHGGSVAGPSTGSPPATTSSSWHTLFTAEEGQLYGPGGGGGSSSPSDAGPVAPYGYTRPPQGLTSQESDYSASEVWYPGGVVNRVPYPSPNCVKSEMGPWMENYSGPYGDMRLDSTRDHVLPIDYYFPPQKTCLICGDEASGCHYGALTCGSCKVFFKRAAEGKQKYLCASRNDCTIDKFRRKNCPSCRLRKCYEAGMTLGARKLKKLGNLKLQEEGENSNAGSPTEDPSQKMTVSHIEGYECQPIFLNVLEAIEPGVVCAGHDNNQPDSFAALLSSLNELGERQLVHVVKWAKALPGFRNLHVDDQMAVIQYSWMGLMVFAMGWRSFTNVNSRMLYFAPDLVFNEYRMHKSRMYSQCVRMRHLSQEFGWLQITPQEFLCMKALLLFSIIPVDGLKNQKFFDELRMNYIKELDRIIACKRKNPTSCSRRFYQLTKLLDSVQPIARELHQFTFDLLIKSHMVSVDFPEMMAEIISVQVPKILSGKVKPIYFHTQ

| IC50 | Structure (SMILES) |
| --- | --- |
| 9540 nM | Cc1ccccc1Cc1n[nH]c(=O)c2ccccc12 |
| 9590 nM | COc1ccccc1Cc1n[nH]c(=O)c2ccccc12 |
| 10500 nM | O=c1[nH]nc(Cc2ccccc2F)c2ccccc12 |
| 530 nM | O=c1[nH]nc(Cc2ccccc2[N+](=O)[O-])c2ccccc12 |
| 220 nM | Nc1ccccc1Cc1n[nH]c(=O)c2ccccc12 |
| 9020 nM | CNc1ccccc1Cc1n[nH]c(=O)c2ccccc12 |
| 1260 nM | O=c1[nH]nc(Cc2ccccc2Cl)c2ccccc12 [4-(2-chlorobenzyl)phthalazin-1(2H)-one] |

More lines, now with the values behind:

| Structure (SMILES) | IC50 |
| --- | --- |
| O=c1[nH]nc(Cc2ccccc2)c2ccccc12 | 5370 nM |
| O=c1[nH]nc(Cc2ccccc2C(F)(F)F)c2ccccc12 | 3670 nM |
| O=C(Nc1ccccc1Cc1n[nH]c(=O)c2ccccc12)C(F)(F)F | 1010 nM |
| CCN(CC)c1ccccc1Cc1n[nH]c(=O)c2ccccc12 | 1660 nM |
| CCNc1ccccc1Cc1n[nH]c(=O)c2ccccc12 | 3710 nM |
| CN(C)c1ccccc1Cc1n[nH]c(=O)c2ccccc12 | 1950 nM |
| Cc1cccc(C)c1Cc1n[nH]c(=O)c2ccccc12 | 1380 nM |
| O=c1[nH]nc(Cc2c(F)cccc2F)c2ccccc12 | 3760 nM |
| O=c1[nH]nc(Cc2c(Cl)cccc2Cl)c2ccccc12 | 180 nM |
| O=c1[nH]nc(Cc2c(Cl)ccc(Cl)c2Cl)c2ccccc12 | 920 nM |

Reference: BindingDB's records for doi:10.1016/j.ejmech.2015.08.002 (Ochanomizu University, 2015)
